Source: patent publication US11001590B2, “Pyrazolopyrimidine derivatives” (BAYER ANIMAL HEALTH GMBH, priority 2016, dated 2021)

Target: C. elegans Slo-1a (Caenorhabditis elegans, UniProt Q95V25)
Assay: In vitro assay 1: C. elegans Slo-1a, action at a recombinant C. elegans CHO cell line (membrane potential measurement)
Settings: not given

Sequence of C. elegans Slo-1a (Q95V25 whole entry): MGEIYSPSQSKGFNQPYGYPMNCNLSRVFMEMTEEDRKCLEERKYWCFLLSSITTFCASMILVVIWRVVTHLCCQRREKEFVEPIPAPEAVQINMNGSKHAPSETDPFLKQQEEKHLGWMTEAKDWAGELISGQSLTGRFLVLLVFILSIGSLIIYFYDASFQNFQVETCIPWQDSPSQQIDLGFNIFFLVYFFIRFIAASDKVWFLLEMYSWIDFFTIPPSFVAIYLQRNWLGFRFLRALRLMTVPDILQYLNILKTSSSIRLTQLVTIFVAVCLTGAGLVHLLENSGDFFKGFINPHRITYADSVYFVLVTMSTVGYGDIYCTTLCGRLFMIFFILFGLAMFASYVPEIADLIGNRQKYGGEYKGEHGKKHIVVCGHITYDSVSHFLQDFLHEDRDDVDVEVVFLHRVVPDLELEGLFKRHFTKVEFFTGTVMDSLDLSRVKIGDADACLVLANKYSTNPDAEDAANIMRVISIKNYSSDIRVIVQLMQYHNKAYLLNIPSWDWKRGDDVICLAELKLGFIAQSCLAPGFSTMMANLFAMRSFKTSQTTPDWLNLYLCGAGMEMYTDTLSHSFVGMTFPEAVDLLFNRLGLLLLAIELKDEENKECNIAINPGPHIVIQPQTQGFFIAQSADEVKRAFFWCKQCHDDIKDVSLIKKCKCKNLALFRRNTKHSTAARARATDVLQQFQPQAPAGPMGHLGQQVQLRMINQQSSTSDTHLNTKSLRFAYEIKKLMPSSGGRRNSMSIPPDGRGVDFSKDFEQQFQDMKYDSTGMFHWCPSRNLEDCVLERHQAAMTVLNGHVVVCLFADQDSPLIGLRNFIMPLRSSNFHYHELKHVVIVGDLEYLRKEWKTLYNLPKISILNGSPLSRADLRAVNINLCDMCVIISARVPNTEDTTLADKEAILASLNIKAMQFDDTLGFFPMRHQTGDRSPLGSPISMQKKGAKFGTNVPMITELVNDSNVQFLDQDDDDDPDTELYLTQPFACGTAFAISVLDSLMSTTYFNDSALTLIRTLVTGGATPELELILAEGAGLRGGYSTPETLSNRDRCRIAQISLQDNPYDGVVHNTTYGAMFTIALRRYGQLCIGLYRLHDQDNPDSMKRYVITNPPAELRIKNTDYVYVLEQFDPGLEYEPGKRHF

SMILES | EC50
Cc1nn2cc(C(=O)N[C@H]3CCc4ccccc43)cnc2c1-c1ccccc1Cl [Example 62] | 2000 nM
Cc1nn2c(C)c(C(=O)N[C@H]3CCc4ccccc43)cnc2c1-c1cc(Cl)cc(Cl)c1 [Example 60] | 7940 nM
Cc1nn2c(C(C)C)c(C(=O)N[C@H]3CCc4ccccc43)cnc2c1-c1cccc(C#N)c1 [Example 291] | 50.1 nM
CC(C)c1c(C(=O)N[C@H]2CCc3ccccc32)cnc2c(-c3cccc(Cl)c3)c(C(F)(F)F)nn12 [Example 48] | 251 nM
CC(C)c1c(C(=O)N[C@H]2CCCc3ccccc32)cnc2c(-c3cccc(C(F)(F)F)c3)c(C(F)(F)F)nn12 [Example 56] | 398 nM
CCOc1cccc(-c2c(C)nn3c(C(C)C)c(C(=O)N[C@H]4CCc5ccccc54)cnc23)c1 [Example 322] | 12.6 nM
CC(C)c1c(C(=O)N[C@H]2CCc3ccccc32)cnc2c(-c3ccc(Cl)cc3)c(Cl)nn12 [Example 73] | 158 nM

Same assay, conditions: CHO cells expressing C. elegans Slo-1a; voltage sensitive dye, FLIPR Tetra; negative decadic logarithm of EC50

SMILES | pE50
COc1ccc(F)c(-c2c(C)nn3c(C(C)C)c(C(=O)N[C@H]4CCOc5ccccc54)cnc23)c1Cl [Example 233] | 8.1
Cc1ccc2c(c1)[C@@H](NC(=O)c1cnc3c(-c4ccccc4Cl)c(C)nn3c1C(C)C)CCC2 [Example 111] | 7.2
Cc1ccc2c(c1)[C@@H](NC(=O)c1cnc3c(-c4cccc(C(F)(F)F)c4)c(C)nn3c1C(C)C)CCC2 [Example 5] | 7.2
Cc1nn2c(C(C)C)c(C(=O)N[C@H]3CCCc4ccccc43)cnc2c1-c1ccc(Cl)c(C(=O)NC2CC2)c1 [Example 119] | 5.5

System: not listed separately
Assay: log P by HPLC on reversed phase columns (Method L0; [a] acidic, [b] neutral range)
Settings: not given

SMILES | chromatographic logP
Cc1nn2cc(C(=O)N[C@H]3CCc4ccccc43)cnc2c1-c1ccccc1Cl [Example 62] | 3.52
Cc1nn2c(C)c(C(=O)N[C@H]3CCc4ccccc43)cnc2c1-c1cc(Cl)cc(Cl)c1 [Example 60] | 4.96
Cc1nn2c(C(C)C)c(C(=O)N[C@H]3CCc4ccccc43)cnc2c1-c1cccc(C#N)c1 [Example 291] | 4.31
CC(C)c1c(C(=O)N[C@H]2CCc3ccccc32)cnc2c(-c3cccc(Cl)c3)c(C(F)(F)F)nn12 [Example 48] | 5.46
CC(C)c1c(C(=O)N[C@H]2CCCc3ccccc32)cnc2c(-c3cccc(C(F)(F)F)c3)c(C(F)(F)F)nn12 [Example 56] | 5.8
CCOc1cccc(-c2c(C)nn3c(C(C)C)c(C(=O)N[C@H]4CCc5ccccc54)cnc23)c1 [Example 322] | 4.94
CC(C)c1c(C(=O)N[C@H]2CCc3ccccc32)cnc2c(-c3ccc(Cl)cc3)c(Cl)nn12 [Example 73] | 5.47

Same assay, conditions: HPLC on reversed phase columns (Method L0)

SMILES | log P
COc1ccc(F)c(-c2c(C)nn3c(C(C)C)c(C(=O)N[C@H]4CCOc5ccccc54)cnc23)c1Cl [Example 233] | 4.23
Cc1nn2c(C(C)C)c(C(=O)N[C@H]3CCc4ccccc43)cnc2c1-c1ccc(NS(C)(=O)=O)cc1 [Examples 330] | 3.38
Cc1nc2c(-c3cc(Cl)cc(Cl)c3)c(C)nn2c(C)c1C(=O)N[C@H]1CCOc2ccccc21 [Example 268] | 4.76
Cc1nn2c(C(F)(F)F)c(C(=O)N[C@H]3CCc4ccccc43)cnc2c1-c1cccc(Cl)c1 [Examples 382] | 4.97
COc1cccc(-c2c(C)nn3c(C(F)(F)F)c(C(=O)N[C@H]4CCc5ccccc54)cnc23)c1 [Examples 386] | 4.34
CCSc1nn2c(C(C)C)c(C(=O)N[C@H]3CCOc4ccccc43)cnc2c1-c1cc(Cl)cc(Cl)c1 [Example 200] | 6.71
Cc1nn2c(C(C)C)c(C(=O)N[C@H]3CCOc4ccccc43)cnc2c1-c1ccc2c(c1)CCC2=O [Example 250] | 3.75
Cc1nn2c(C(C)C)c(C(=O)N[C@H]3CCc4ccccc43)cnc2c1-c1ccc(C#N)cc1 [Examples 301] | 4.28
CCSc1nn2c(C(C)C)c(C(=O)N[C@H]3CCc4ccccc43)cnc2c1-c1cc(Cl)cc(Cl)c1 [Example 201] | 6.93
CC(C)Sc1nn2c(C(C)C)c(C(=O)N[C@H]3CCc4ccccc43)cnc2c1-c1cc(Cl)cc(Cl)c1 [Example 199] | 7.34

Same assay, conditions: HPLC on reversed phase columns (Method L0); last column of Table 1, column head not shown

SMILES | log P
Cc1nn2c(C(C)C)c(C(=O)N[C@H]3CCc4ccccc43)cnc2c1-c1cnn(CCN(C)C)c1 [Examples 404] | 1.75
COc1c(C(=O)N[C@H]2CCOc3ccccc32)cnc2c(-c3cc(Cl)cc(Cl)c3)c(C)nn12 [Example 521] | 3.56
Cc1nn2c(C3CC3)c(C(=O)N[C@H]3CCOc4ccccc43)cnc2c1-c1ccnc(N2CCOCC2)c1 [Example 526] | 1.53
COCc1cccc(-c2c(C3CC3)nn3c(C(C)C)c(C(=O)N[C@H]4CCc5ccccc54)cnc23)c1 [Examples 409] | 5.13
Cc1nn2c(C(F)(F)F)c(C(=O)N[C@H]3CCc4ccccc43)cnc2c1-c1c(F)cccc1F [Example 410] | 4.16
COc1c(C(=O)N[C@H]2CCOc3ccccc32)cnc2c(-c3cc(Cl)cc(Cl)c3F)c(C)nn12 [Example 515] | 3.17
CC(C)c1c(C(=O)N[C@H]2CCc3ccccc32)cnc2c(-c3cccc(C(F)(F)F)c3)c(C3CC3)nn12 [Example 415] | 5.94
COc1c(C(=O)N[C@H]2CCOc3ccccc32)cnc2c(-c3c(F)cccc3Cl)c(C)nn12 [Example 514] | 4.93
Cc1nn2c(C(C)C)c(C(=O)N[C@H]3CCc4ccccc43)cnc2c1-c1cnn(CCN2CCOCC2)c1 [Examples 397] | 1.81

Same assay, conditions: HPLC on reversed phase columns, Method L0, [a] acidic range

SMILES | logP (Method L0) [a]
Cc1ccc2c(c1)[C@@H](NC(=O)c1cnc3c(-c4ccccc4Cl)c(C)nn3c1C(C)C)CCC2 [Example 111] | 5.37
Cc1ccc2c(c1)[C@@H](NC(=O)c1cnc3c(-c4cccc(C(F)(F)F)c4)c(C)nn3c1C(C)C)CCC2 [Example 5] | 5.99
Cc1nn2c(C(C)C)c(C(=O)N[C@H]3CCCc4ccccc43)cnc2c1-c1ccc(Cl)c(C(=O)NC2CC2)c1 [Example 119] | 4.07
O=C(N[C@H]1CCc2ccccc21)c1cnc2c(-c3ccc(Cl)cc3)c(C(F)(F)F)nn2c1 [Example 80] | 4.61
Cc1c(C(=O)N[C@H]2CCCc3ccccc32)cnc2c(-c3ccccc3Cl)c(C(F)(F)F)nn12 [Example 90] | 4.5
Cc1c(C(=O)N[C@H]2CCCc3ccccc32)cnc2c(-c3cc(Cl)cc(Cl)c3)c(Cl)nn12 [Example 68] | 5.78
Cc1c(C(=O)N[C@H]2CCc3ccccc32)cnc2c(-c3cccc(C(F)(F)F)c3)c(C(F)(F)F)nn12 [Example 85] | 4.77
CC(C)c1c(C(=O)N[C@H]2CCc3ccccc32)cnc2c(-c3ccc(F)cc3)c(C(F)(F)F)nn12 [Example 162] | 4.95
Cc1c(C(=O)N[C@H]2CCCc3ccccc32)cnc2c(-c3cccc(Cl)c3)c(Cl)nn12 [Example 58] | 4.9
Cc1c(C(=O)N[C@H]2CCCc3ccccc32)cnc2c(-c3cccc(C(F)(F)F)c3)c(C(F)(F)F)nn12 [Example 83] | 5.03
CC(C)c1c(C(=O)N[C@H]2CCCc3ccccc32)cnc2c(-c3cc(Cl)cc(Cl)c3)c(Cl)nn12 [Example 64] | 6.69
O=C(N[C@H]1CCc2ccccc21)c1cnc2c(-c3cccc(Cl)c3)c(C(F)(F)F)nn2c1 [Example 50] | 4.57
O=C(N[C@H]1CCc2ccccc21)c1cnc2c(-c3ccccc3Cl)c(C(F)(F)F)nn2c1 [Example 84] | 4.15
Cc1c(C(=O)N[C@H]2CCCc3ccccc32)cnc2c(-c3ccc(Cl)cc3)c(C(F)(F)F)nn12 [Example 53] | 4.97
Cc1c(C(=O)N[C@H]2CCCc3ccccc32)cnc2c(-c3cc(Cl)cc(Cl)c3)c(C(F)(F)F)nn12 [Example 82] | 5.66
CC(C)c1c(C(=O)N[C@H]2CCCc3ccccc32)cnc2c(-c3ccc(Cl)cc3)c(C(F)(F)F)nn12 [Example 54] | 5.76
Cc1ccc2c(c1)[C@@H](NC(=O)c1cnc3c(-c4ccc(Cl)cc4)c(C)nn3c1C(C)C)CCC2 [Example 113] | 5.88
